“And” between values parts separate entries of the source, which are not always exact repeats. Equal values may be shown once.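 Grown in 96-well plates, cells were treated for 48 hours with each compound at five concentrations. Insufficient inhibition: endpoint recorded as highest concentration tested. The concentration for 50% growth inhibition is given as GI50. TGI marks complete inhibition of growth.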 Bounds are passed on as bounds.

In this assay the test system is MDA-MB-468 breast. The assay is described as follows: NCI tumour cell line growth inhibition, 48 h.
As to `COC(=O)c1c2c(c[n+]([O-])c1C)C(=O)C=CC2=O`, the GI50 is 914 nM and the TGI worked out at 3010 nM.
For `COc1cc(/C=C2\C(=O)Nc3cc(C)c(O)cc32)cc(OC)c1OC` the same measures were 1500 nM and 5880 nM.
For the compound `CN[C@H]1C=C[C@@H]2/C=C(C)/C=C/[C@@H](C)[C@H]([C@H](C)[C@H](O)[C@@H](C)NC(C)=O)OC(=O)/C=C/C=C(C)\C=C\[C@]2(C)C1`, the GI50 was < 1 nM and 4.9 nM.
Consider `COC(=O)[C@@H](C)C[C@H](Cc1ccccc1)NC(=O)c1csc(CC[C@H](C(C)C)N(C)C(=O)[C@@H](NC(=O)[C@H]2CCCCN2C)C(C)C)n1`, for which the GI50 was 68.9 nM and the TGI turned out to be 275 nM.
The matching figures for `CNC(=O)c1ccc(N2CCN(Cc3ccc4nc(C)c(=O)[nH]c4c3F)CC2)c(F)n1`: 27800 nM and > 100000 nM.
For `OCc1ccc(-c2ccc(-c3ccc(CO)o3)[se]2)o1` the same measures were 219 nM and 704 nM.
For `Cc1ccc2c(n1)C(=O)C(Cl)=C(Nc1ccc(C)c(C)c1)C2=O` the same measures were 317 nM and 1340 nM.
As for `COc1ccc(C(=O)/C=C/c2ccc(C)cc2)cc1OC`, the GI50 is 11400 nM and the TGI turned out to be 24600 nM.
For `O=c1c(Oc2ccc(F)cc2F)cc2cnc(NC3CCOCC3)nc2n1CCCO` the same measures were > 25000 nM and > 25000 nM.
For `CO[C@H]1/C=C/O[C@@]2(C)Oc3c(C)c(O)c4c(c3C2=O)C(=O)C(/C=N/N(c2ccccc2)c2ccccc2)=C(NC(=O)/C(C)=C\C=C\[C@H](C)[C@H](O)[C@@H](C)[C@@H](O)[C@@H](C)[C@H](OC(C)=O)[C@@H]1C)C4=O` the same measures were 2090 nM and 4690 nM.
The matching figures for `COc1ccc(-c2cn[nH]c2-c2cc(OC)c3c(c2)OCO3)cc1`: 152 nM and 733 nM.
Take `S=C(Nc1ccc(Br)cc1)Nc1ccc(Br)cc1`: the GI50 was 2260 nM and the TGI was 14000 nM.
On to `CCOC(=O)N1CCN(c2nc(Nc3cc(C)[nH]n3)c3ccccc3n2)CC1`, for which the GI50 was 1800 nM and the TGI came to 8420 nM.
For `COc1cccc(-c2cc(=O)c3cc(OC)ccc3[nH]2)c1` the same measures were 982 nM and > 100000 nM.
The matching figures for `CCCNNC(=O)/C=C/c1ccc(CNCCc2c(C)[nH]c3ccccc23)cc1`: 27.9 nM and 529 nM.
For `COc1cc(-c2cc3ncccc3c3nc(N)c4cccnc4c23)cc(OC)c1OC` the same measures were 555 nM and 66800 nM.
For `C=C1C(=O)O[C@H]2[C@H]1CC/C(COC(=O)CSCCSCC(=O)OC/C1=C/CC[C@@]3(C)O[C@H]3[C@H]3OC(=O)C(=C)[C@@H]3CC1)=C\CC[C@@]1(C)O[C@@H]21`, the GI50 was 1070 nM and the TGI came to 2850 nM.
For the compound `Cc1cnc(NC(=O)Nc2cc(Br)c(C)cc2OC[C@@H]2CNCCO2)cn1`, the GI50 was 3860 nM and 834 nM; the TGI is > 10000 nM and 5490 nM.
With `Cc1ccc(C)c2c1C(O)(C#Cc1ccccc1)c1ccccc1C2(O)C#Cc1ccccc1` (stereo unspecified), the GI50 was 3570 nM and the TGI is > 100000 nM.
The matching figures for `CCc1cccc(C)c1NC(=O)c1sc2nc3c(cc2c1N)CCCCC3`: 4180 nM and > 100000 nM.
For `Fc1ccc2[nH]cc(-c3nonc3-c3c[nH]c4ccc(Br)cc34)c2c1` the same measures were 1940 nM and 4720 nM.
`CN(C)CCCOc1ccc(-c2ccc3ncc4c(c3c2)n(C2CCOCC2)c(=O)n4C)cn1`: the GI50 is 2080 nM and the TGI was 15700 nM.
The matching figures for `CCOC(=O)c1sc(-c2ccc(OS(=O)(=O)c3ccc(Br)s3)c(C=O)c2)nc1C`: 2960 nM and 9200 nM.
Take `Cc1nc(SCC(=O)Nc2nc(-c3ccc(Cl)cc3)cs2)n(Nc2ccccc2)c1C`: the GI50 was 1450 nM and the TGI is 6270 nM.
The matching figures for `COc1cc(OC)cc(N(CCNC(C)C)c2ccc3ncc(-c4cnn(C)c4)nc3c2)c1`: 3070 nM and 13000 nM.
The matching figures for `COC(=O)CCc1c[nH]c2ccc(N(CCCl)CCCl)cc12`: 311 nM and 1810 nM.
The matching figures for `Nc1ccc(C2=NN(c3ccccc3)C(c3ccc(Cl)cc3)C2)cc1` (stereo unspecified): 1660 nM and 4090 nM.
With `CCC[CH2][Sn]([CH2]CCC)([CH2]CCC)[O]c1ccc(Cl)cc1Cl`, the GI50 was 105 nM and the TGI is 250 nM.
`FC(F)c1nc2ccccc2n1-c1nc(N2CCOCC2)nc(N2CCOCC2)n1`: the GI50 is 135 nM and 124 nM; the TGI was 971 nM and 607 nM.
Take `Cc1nn(-c2nc3ccccc3[nH]2)c(N)c1-c1ccc(Cl)cc1`: the GI50 is 2690 nM and the TGI was > 100000 nM.
The matching figures for `CCN(Cc1cccc(F)c1)c1ccc(CO)c(Cl)c1`: 15.7 nM and 38.1 nM.
With `Cn1cc(C2=C(c3cn(CCCCN)c4ccccc34)C(=O)NC2=O)c2ccccc21`, the GI50 is > 25000 nM and the TGI is > 25000 nM.
On to `COC(=O)CCC(=O)NC1=C(Nc2ccc(OC)cc2)C(=O)c2ccccc2C1=O`, for which the GI50 is 3090 nM and the TGI was determined as 12200 nM.
`O=C(CO[N+](=O)[O-])Nc1ccc(C(=O)/C=C/c2ccc(Cl)cc2)cc1`: the GI50 was 2060 nM and the TGI was 5070 nM.
As to `COc1cc(NC(N)=NCCC(C)(C)Oc2ccc(C(F)(F)F)cc2)ncc1C#N`, the GI50 is 1070 nM and the TGI stood at 2440 nM.
For `C#CCOc1cccc(-c2ncnc3cc(NC(=O)CCl)ccc23)c1` the same measures were 1450 nM and 3540 nM.
For `O=C(Nc1cccc(-n2ccc3c(NC(=O)c4ccccc4)nccc32)c1)Nc1cc(C(F)(F)F)cc(C(F)(F)F)c1` the same measures were 1550 nM and 13600 nM.
The matching figures for `CN(C)S(=O)(=O)c1ccc(-c2nc(C(Cl)Cl)nc3cc(-c4ccc(F)cc4)nn23)cc1`: 1630 nM and 4640 nM.
Consider `Cc1ccc(-c2csc(/N=C3\C(=O)Nc4ccccc43)n2)cc1`, for which the GI50 is 1460 nM and the TGI came to 3510 nM.
For `O=S(=O)(Nc1ccccc1Cl)c1ccc(-c2cnc(C3CC3)o2)cc1` the same measures were 236 nM and 6910 nM.
For `CC[N+](CC)=c1sc2c(s1)C(c1ccc(Cl)cc1)Oc1ccc(Cl)cc1-2` (stereo unspecified) the same measures were 1400 nM and 4120 nM.
